Literature values, collected in patent US9340307B2, “Stable laquinimod preparations” (priority 2007, dated 2016).

System: acute experimental autoimmune encephalomyelitis (aEAE) model
Conditions: U.S. Pat. No. 6,077,851

In the case of CCN(C(=O)c1c(O)c2c(Cl)cccc2n(C)c1=O)c1ccccc1 [Laquinimod, N-ethyl-N-phenyl-1,2-dihydro-4-hydroxy-5-chloro-1-methyl-2-oxoquinoline-3-carboxamide], the “effectiveness in the aEAE model” value is listed as “effective”.
